From paper PMC11900122, “Study of Intracellular Peptides of the Central Nervous System of Zebrafish (Danio rerio) in a Parkinson’s Disease Model” (International Journal of Molecular Sciences, 2025)

Test system: Zebrafish (Danio rerio) larvae
Assay: Behavioral assay in 6-OHDA zebrafish larvae model
Format: in vivo
Settings: larvae 4 dpf, 750 µM 6-OHDA 24 h, then peptide 50 µM for 24 h; filmed 5 min, ToxTrac; 12 embryos per group
Method: Wild-type adult D. rerio (zebrafish) were obtained from a licensed commercial distributor. They were maintained on a 14 h light–10 h dark photoperiod in fresh filtered water at 28 °C and fed twice a day with dry food and once a day with Artemia sp. Reproduction was performed in individual fish tanks in a 1 male–1 female proportion, with pebbles and artificial plants. Eggs were collected, selected and maintained in an incubator at 28 °C until 4 days post fertilization (dpf). This study followed the guidelines of the National Council for Animal Experimentation Control (CONCEA) and was approved by the Ethics Commission for Animal Use (CEUA) at the Bioscience Institute of São Paulo State University (São Vicente, Brazil: Protocol Number 06/2023, approved on 22 June 2023).
Zebrafish (Danio rerio) larvae at 4 dpf were transferred to a 96-well plate, a single larva per well. Larvae were treated with 750 µM 6-OHDA in system water for 24 h in an incubator at 28 °C. Then, solution was changed to system water with each peptide in different concentrations—10 µM, 20 µM, 30 µM, 40 µM and 50 µM [47]—and larvae were incubated at 28 °C for another 24 h. Finally, each larva was filmed for 5 min, and videos were processed by an automated tracking system (ToxTrac Version 2.96). Analysis parameters were mean speed (mm/s) and total distance swum (mm) (Figure 8). Statistical analysis was performed using a one-way analysis of variance (ANOVA) test followed by Dunnett’s test for multiple comparisons. Data were statistically analyzed using GraphPad Prism Software (GraphPad Software Inc., San Diego, CA, USA).
Figure 8 Zebrafish larva model. Zebrafish larvae were immersed in 6-OHDA 750 µM for 24 h, then in each peptide at 10 µM, 20 µM, 30 µM, 40 µM or 50 µM for 24 h. Videos were recorded for 5 min and then analyzed by software (ToxTrac Version 2.96). Parameters were mean speed and distance traveled.

Sequence | Mean speed, compared to the control group | Total distance swum, compared to the control group
GVGFATRQV [p-FABP7] | statistically equal results to the control group | statistically equal results to the control group
TIEQEKQAGSS [p-Tbeta4, […], derived from thymosin beta-4] | statistically equal results to the control group | statistically equal results to the control group
TLDLNEMDYIQRGGPE [p-MRPS36, peptide derived from mitochondrial ribosomal protein S36] | statistically equal results to the control group | statistically equal results to the control group
